In patent US9744236B2, “Photolabile compounds” (The Trustees of Columbia University in the City of New York, priority 2009, dated 2017):

Tests used:
[1] = Behaviour of modified rhodamine ligand at physiological pH; format: physicochemical
Excerpt: Given these properties, the chemical structure of rhodamine B was modified by adding a “sticky tail” in order to coordinate the fluorescent molecule to the metal center. In a first attempt to synthesize a modified rhodamine bearing a coordinating group, carboxylate was amidated with aminopropionitrile, using the Adamczyk procedure (Adamczyk, M. J. Bioorg. Med. Chem. Lett. 2000, 10: 1539-1541). The obtained compound is RhodB-APN, indicated in scheme 1B. […] Rhodamine 6G can be modified similarly to the rhodamine B, described above.

[2] = Flash photolysis, uncaging time; format: physicochemical; settings: basic aqueous solution, 532 nm, 10 ns pulse
Protocol: In order to estimate the uncaging time, a flash photolysis experiment was performed on a basic aqueous solution of [Ru(bpy)2(PMe3)Glu] using the second harmonic of a Nd-YAGlaser (532 nm, 10 ns pulse). The photocleavage occurs within the first 50 ns, being the fastest reported caged compound, to our knowledge. The fact that a tens of nanoseconds are required to complete the glutamate uncaging reaction is compatible with the observation that the excited state lifetime measured for a similar compound containing pyridine instead of glutamate is in the range of 10-100 ns.

[3] = 1H-NMR in D2O, isotopic exchange / inertness; format: physicochemical; settings: 2 months in D2O at room temperature
Excerpt: The aliphatic region corresponding to the glutamate moiety is depicted in the upper trace of FIG. 18, where —NH2 protons appear at 4.50, 4.12, 4.00 and 3.57 ppm. […] This behavior differs from that of free glutamate which, under the same conditions, exchanges rapidly D+ for H+.

[4] = Cyclic voltammetry, redox potential; format: physicochemical; settings: acetonitrile, vs. NHE
Protocol: UV-vis spectra in water were obtained with an HP 8453 diode array spectrophotometer. RMN ^1H spectra were obtained using a Bruker 500 MHz equipment. CV measurements were performed with a PAR 273A potentiostat. Irradiation was effected by means of a pulsed Xe lamp, (pulse energy ˜0.5 J), with a low-pass filter at 480 nm. Irradiation using a 473 nm DPSS laser gave similar results.
(See, e.g., E. S. Dodsworth et al., 1986, Chem. Phys. Lett., 124:152-158). The photoactivity of these compounds has been explained in terms of a reaction pathway that involves the transition between the MLCT state to a lower-energy d-d state, which promotes ligand release. There is a direct correspondence between the energy of the MLCT transition and the quantum yield of the photoreaction. For [Ru(bpy)2(4AP)CH3CN]^2+, the photoreaction yield is about φPR=0.4. Since [Ru(bpy)2(4AP)2]Cl2 presents a red-shifted band, a lower photoreaction yield is expected. An estimate based on early experiments leads to an estimate of φPR≅0.02 at 473 nm.
Its aqueous solutions present a strong metal to ligand charge-transfer band (MLCT band) at 450 nm, characteristic of this family of Ru polypyridines.

[5] = system: living neocortical pyramidal neurons in mouse brain slices; assay: Biocompatibility test on brain slices (two-photon microscopy, whole-cell patch recordings); format: cell-based; settings: 350 μM, 1 hour of incubation
Protocol: Biocompatibility tests were performed to evaluate the potential toxicity of the complex. 350 μM [Ru(bpy)2(PMe3)Glu], a concentration used for two-photon uncaging experiments, was incubated with living neocortical pyramidal neurons in mouse brain slices, and carefully monitored the morphology and electrophysiological properties of the neurons using two-photon microscopy and whole-cell patch recordings.

[6] = Photorelease of glutamate, UV-Vis during 450 nm LED irradiation; format: physicochemical
Protocol: As the photoreaction proceeds, the generation of the aquo complex was recorded to reach completion in about 4 minutes. The presence of two isosbestic points as well as a factor analysis performed on the spectra indicate that just two colored species are present in the solution, according to what is expected in a single photoaquation process. The spectrum of the photoproduct was found identical to that of the complex [Ru(bpy)2(PMe3)(H2O)]2^+, which can be synthesized by refluxing the chloro complex in water. At pH=11 a similar behavior was observed, although in this case the product is the hydroxo complex [Ru(bpy)2(PMe3)(OH)]^+.
The irradiance of the light source was calibrated using the known efficiency of the photolysis of [Ru(bpy)(Py)2]^2+. The amount of photoreleased glutamate was fitted using a two-parameter single-exponential function: y=a[1−exp(−bx)] and the quantum yield (φPC) was obtained as a•b, adopting a value of 0.13 at pH=7 and 0.10 at pH=11.

[7] = Fluorescence emission quantum yield before and after irradiation; format: physicochemical; settings: after blue light (473 nm) irradiation
Excerpt: All reagents were purchased from Sigma-Aldrich and used as received. Ru(bpy)2Cl2 was synthesized according to the literature using water as solvent (Viala, C.; Coudret, C. Inorg. Chim. Acta 2006, 359: 984-989). UV-vis spectra were taken with a HP8453 diode-array spectrometer. NMR spectra were obtained using a 500 MHz Bruker AM-500. Fluorescence emission measurements were made with a PTI Quantamaster spectrofluorometer, corrected for the instruments response function. Rhodamine B was used as fluorescence standard of emission quantum yield (φ=0.31 in aqueous solutions). Quantum yield of the complex was obtained directly from the ratio of the spectral areas, which present the same shape.
FIG. 20 depicts the emission spectra of the complex during irradiation. The maximum and the shape of the initial emission spectrum is the same as that of the free ligand RhodB-MAPN but the emission quantum yield is much lower, around pt=0.04. Quantum yields are easily calculated integrating the spectral areas. After irradiation with a 473 nm laser, RhodB-MAPN is released and the solution increases its fluorescence up to 6 fold, to φt=0.24.

Retzius cells = assay: Injection of caged fluorescent probe into living neurons; format: cell-based, Hirudo medicinalis; settings: short-term (˜2 h) experiments
Protocol: Microscopy of leech (Hirudo medicinalis) ganglia was performed in a custom-made setup for photoelectrophisiology equipped with a micromanipulator used to impale the neuron body with the ˜1 μm tip diameter capillaries, and a CCD webcam as a registering device. An isolated leech ganglion from a segment between 7 and 14 was pinned down in a sylgard-coated, 35 mm Petri dish. Retzius cells were identified by their position, size, and firing behavior. Intracellular recordings were obtained with ˜20 MΩ sharp capillary microelectrodes, a Neuroprobe 1600 (A-M Systems) amplifier and a A/D signal acquisition board at 1 kHz sampling rate and custom-made software. For iontophoretical injection of the dye the microelectrode was filled with recording solution to which 1 mM caged fluorescent dye (chloride form) was added. Square, biphasic pulses of 1 nA, 2 Hz were applied for less that 5 min.
This example provides an activatable fluorescent probe with surprising sensitivity in the visible light region. It increases its intrinsic fluorescence up to 6-fold after blue light irradiation. […] The probe was used to image the laminar flow inside a thin spectrophotometric flow cell and to visualize the parabolic-shaped flow in a FIA capillary.

[8] = in aqueous solutions; cited from earlier work

CCN(CC)c1ccc2c(-c3ccccc3C(=O)NCCC#N)c3ccc(=[N+](CC)CC)cc-3oc2c1 [RhodB-APN]
stability of fluorescent form [1]: undergoes isomerization to the cyclic spirolactame form

CP(C)C.F[P-](F)(F)(F)(F)F.F[P-](F)(F)(F)(F)F.NC(CCC(=O)O)C(=O)O.[Ru+2].c1ccc(-c2ccccn2)nc1.c1ccc(-c2ccccn2)nc1 [[Ru(bpy)2(PMe3)GlutH2](PF6)2]
photocleavage time [2]: ≤ 50 ns
isotopic exchange of coordinated -NH2 (inertness) [3]: no exchange is seen
redox process, Ru(III)/Ru(II) couple of the original complex [4]: 0.98 V
effects on morphology and electrophysiological properties of neurons [5]: no detectable effects were observed
quantum yield (φPC) of glutamate photorelease ([6]; pH=7): 0.13
time for photoreaction to reach completion ([6]; pH=7, 450±20 nm LED): about 4 minutes
quantum yield (φPC) of glutamate photorelease ([6]; pH=11): 0.10

CCN(CC)c1ccc2c(-c3ccccc3C(=O)N(C)CCC#N)c3ccc(=[N+](CC)CC)cc-3oc2c1.[Cl-].[Cl][Ru+].c1ccc(-c2ccccn2)nc1.c1ccc(-c2ccccn2)nc1 [[Ru(bpy)2(RhodB-MAPN)Cl]Cl]
increase of fluorescence [7]: up to 6 fold
acute toxicity in injected living cells (Retzius cells): no sign of acute toxicity

CCN(CC)c1ccc2c(-c3ccccc3C(=O)O)c3ccc(=[N+](CC)CC)cc-3oc2c1.[Cl-] [Rhodamine B]
emission quantum yield (fluorescence standard) [8]: 0.31
